Results reported in PubChem BioAssay (NCI).
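These data come from cells grown in 96-well plates and exposed to compound for 48 hours at five concentrations. TGI is the concentration that stops growth completely.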

How the values were obtained:
Test in all cases: growth of human tumour cells (NCI), 48 h
[1] = test system: SNB-75 CNS
[2] = test system: UACC-257 melanoma
[3] = test system: NCI-H522 lung
[4] = test system: DU-145 prostate
[5] = test system: LOX IMVI melanoma
[6] = test system: ACHN renal
[7] = test system: OVCAR-5 ovarian
[8] = test system: MCF7 breast
[9] = test system: SW-620 colon
[10] = test system: COLO 205 colon

| SMILES | TGI [1] [µM] | TGI [2] [µM] | TGI [3] [µM] | TGI [4] [µM] | TGI [5] [µM] | TGI [6] [µM] | TGI [7] [µM] | TGI [8] [µM] | TGI [9] [µM] | TGI [10] [µM] |
| --- | --- | --- | --- | --- | --- | --- | --- | --- | --- | --- |
| COc1ccc(N=C(SSC(=Nc2ccc(OC)cc2)c2ccc([N+](=O)[O-])o2)c2ccc([N+](=O)[O-])o2)cc1 | 2.9 | > 19.9 | 0.953 | 2.92 | 5.05 | 4.1 | 5.01 |  |  |  |
| CCCCSC1=N/C(=C\c2ccccc2O)C(Cl)=N1 | > 100 | > 100 | > 100 | > 100 | > 100 | > 100 | > 100 | > 100 | > 100 | > 100 |
| COc1ccc2c(C=O)c3n(c(=O)c2c1OC)CCc1cc2c(cc1-3)OCO2 | > 100 | > 100 | > 100 | > 100 |  | > 100 | > 100 | > 100 | > 100 | 82 |
| Nc1ccc2ncc(Nc3ccc(Cl)c(Cl)c3)nc2c1 | 59.4 | 54.6 | 48.8 |  | > 100 | 86.3 | > 100 |  | > 100 | 32.9 |
| CCOC(=O)c1ccc(-c2cccs2)[nH]1 | > 100 | > 100 | > 100 | > 100 | > 100 | > 100 | > 100 | > 100 | > 100 | > 100 |
| Cc1[nH]n(C(=O)c2ccc(Cl)cc2)c(=O)c1/C=C1\C(O)=CC(=O)c2ccccc21 |  | > 100 | > 100 |  | > 100 | > 100 | > 100 |  | > 100 | > 100 |
| Nn1c(=S)[nH]nc(/C=C/c2c(O)ccc3ccccc23)c1=O |  | 50.9 | 16.7 | > 100 | 11.7 | 51.7 | 42.5 | 12.6 | > 100 | 27.7 |
| CCOC(=O)c1c(SCCN(CC)CC)n(-c2ccccc2)c(=S)n(-c2ccccc2)c1=O | 23.4 | 5.46 | 3.67 | 3.06 | 4.03 | 3.2 | > 57.6 |  | > 24.2 | 6.2 |
| CCCCN1/C(=N/Nc2n[nH]c(=O)c3ccccc23)SCC1c1ccc(Cl)cc1 (centres undefined) | 64 | 45.6 | 37.1 | > 100 |  | > 100 | 61 | 33.2 | 53 | > 100 |
| CCN(CCCl)c1ccc(NC(=O)c2cc(C(=O)NCCN(C)C)cc(C(=O)Nc3ccc(N(CC)CCCl)cc3)c2)cc1 | 69.6 | 65.6 | 11.4 | 39.2 | 12.8 | 21.3 | 87.1 | 19.6 | 18 |  |
| N/N=C(\N)SCc1ccc(N=C=S)cc1 | > 100 | > 100 | > 100 | > 100 | > 100 | > 100 | > 100 |  | > 100 | > 100 |
| CN1OC(CO)CC12C1CC3CC(C1)CC2C3 (centres undefined) | > 100 |  | > 100 |  | > 100 | > 100 | > 100 |  | > 100 | > 100 |
| O=CC12CCCN1CCC2 |  | > 100 | > 100 | > 100 | > 100 | > 100 | > 100 |  | > 100 | > 100 |
| CCOP(=O)(OCC)/C(C#N)=C(\C)c1ccco1 | > 10 | > 10 |  | > 10 | > 10 | > 10 | > 10 | > 10 | > 10 | > 10 |
| CCc1nc2cc(F)ccc2[nH]c1=O | > 100 | > 100 |  | > 100 | > 100 | > 100 | > 100 | > 100 | > 100 | > 100 |
| FC(F)(Sc1nc2ccccc2[nH]1)c1nc2ccccc2o1 | > 100 | > 100 | 31.8 | > 100 |  | > 100 | > 100 | > 100 | > 100 | > 100 |
| NNC(=O)COc1nc(-c2cccs2)nc2ccc(I)cc12 | 59 |  | 45.8 | 50.7 | 36.9 | 74.2 | > 100 | 88.7 | > 100 | 70.9 |
| Cc1ccc(C(=O)C2CC3(CCC2(O)c2ccc(C)cc2)CC(=O)Nc2ccccc2C3=O)cc1 (centres undefined) | 93.5 | > 100 |  | > 100 | > 100 |  | > 100 | > 100 | > 100 | > 100 |
| N#Cc1c(N)n(-c2nc3ccccc3s2)c(=O)c2cc([N+](=O)[O-])ccc12 | > 48.3 | 69.3 | 25.6 | > 100 | 19.7 | > 72.8 | > 79 | 41.3 | > 100 |  |
| CCCCCCCCCCCC1=C(O)C(=O)C=C(O)C1=O | 17.7 | 16.7 | 66.5 |  | 38 |  | 24.3 | 42.2 | 55.3 | 27.9 |
| O=C(C[N+]1(c2ccccc2)CCOCC1)c1ccccc1 | > 100 | > 100 | > 100 | > 100 | > 100 | > 100 | > 100 |  |  |  |
| CC(=O)Oc1cc(OC(C)=O)c2c(c1C)CC[C@@H]1[C@@H]2CC[C@]2(C)[C@@H](OC(C)=O)CC[C@@H]12 | 44 | 32 | 32 | 61 | 34.2 | 31.2 |  | 34.1 | 32.9 |  |
| NS(=O)(=O)C1CCCCC1C(=O)NNC(=O)C(=O)Nc1nc(=S)[nH][nH]1 (centres undefined) | > 100 | > 100 | > 100 |  | > 100 | > 100 | > 100 |  | > 100 | > 100 |
| CCCCCCCCCCCCCCCC(=O)OCC(COP(=O)(O)OCCNC(=O)CCSSc1ccccn1)OC(=O)CCCCCCCCCCCCCCC (centres undefined) | > 100 | > 100 | > 100 | > 100 |  | > 100 | > 100 | > 100 | > 100 | > 100 |
